Data on five compounds can be found in patent EP4810052A2, “HCRHR2 SELECTIVE POLYPEPTIDES” (Gubra A/S, priority 2023, dated 2026).

Read-outs that look alike come from different tables or passages of the source. Starred links: 1 amine or outer side, 2 acyl side, 3 side chain; linkers in the order of their positions; H or OH if unused. Non-standard residues stand in square brackets, D forms with d. Residues, ends and D or L forms follow the SMILES beside them. Groups on a side chain read outwards from the residue. *: point of attachment. C20 diacid = O=C(O)CCCCCCCCCCCCCCCCCCC(=O)*; γGlu = O=C(O)[C@H](CCC(=O)[*:2])N[*:1]; Nle = CCCC[C@H](N)C(=O)O; AEEA = NCCOCCOCC(=O)O

One assay addresses T1, hCRHR2 (Homo sapiens, UniProt Q13324).
T1 sequence (Q13324 1-411): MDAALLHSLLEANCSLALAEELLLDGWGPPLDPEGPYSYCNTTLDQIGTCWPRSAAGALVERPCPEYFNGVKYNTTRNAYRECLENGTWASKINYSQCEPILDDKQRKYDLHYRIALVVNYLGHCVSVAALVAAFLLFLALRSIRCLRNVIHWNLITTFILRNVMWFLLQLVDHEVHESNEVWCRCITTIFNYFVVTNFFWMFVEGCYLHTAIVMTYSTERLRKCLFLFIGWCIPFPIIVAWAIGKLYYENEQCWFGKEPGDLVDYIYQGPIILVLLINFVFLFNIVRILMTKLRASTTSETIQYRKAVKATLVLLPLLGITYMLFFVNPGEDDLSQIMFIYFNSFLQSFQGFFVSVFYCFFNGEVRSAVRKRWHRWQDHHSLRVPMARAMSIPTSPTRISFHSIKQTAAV
The assay is described as follows: HTRF cAMP assay, determination of hCRHR2 potency (peptide libraries 5 conc., purified peptides 11 conc.). Type of assay: cell-based. The procedure, abridged:
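Read-out was HTRF competitive cAMP detection (d2-labelled cAMP, cryptate-labelled antibody) in suspended, freshly thawed CHO-K1 cells stably carrying human CRHR2.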

The target in a further assay is T2, hCRHR1 (Homo sapiens, UniProt P34998).
T2 sequence (P34998 24-415): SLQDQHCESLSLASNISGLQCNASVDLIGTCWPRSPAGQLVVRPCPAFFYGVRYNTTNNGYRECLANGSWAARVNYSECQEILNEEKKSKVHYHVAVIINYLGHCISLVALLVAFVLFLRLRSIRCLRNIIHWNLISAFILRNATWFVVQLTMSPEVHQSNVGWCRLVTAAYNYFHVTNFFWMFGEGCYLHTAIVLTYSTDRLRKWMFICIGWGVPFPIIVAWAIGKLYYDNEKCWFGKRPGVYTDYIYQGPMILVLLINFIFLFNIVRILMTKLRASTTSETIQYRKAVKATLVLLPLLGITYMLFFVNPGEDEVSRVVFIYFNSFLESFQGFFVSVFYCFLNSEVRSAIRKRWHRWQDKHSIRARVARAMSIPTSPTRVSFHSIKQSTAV
The assay is described as follows: HTRF cAMP assay, determination of hCRHR1 potency (peptide libraries 5 conc., purified peptides 11 conc.). Type of assay: cell-based. The gist of the method:
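Cellular cAMP was read by time-resolved FRET between d2-labelled cAMP and cryptate anti-cAMP antibody. The cells were freshly thawed suspension CHO-K1 cells stably expressing human CRHR1.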
(In TR-FRET formats the signal depends on donor and acceptor labels being close together.)

Where [1] appears, read: Table 3, matched molecular pairs X^38 L vs Nle, peptide library of Example 4, read-out: hCRHR2 pEC50 (converted).
[2] abbreviates: Table 3, matched molecular pairs X^38 L vs Nle, peptide library of Example 4, read-out: hCRHR1 pEC50 (converted).
The mark [3] stands for this setting: library peptides, matched molecular pairs L vs Nle in position X^38, read-out: Potency hCRHR2 pEC50 (converted).
The mark [4] stands for this setting: library peptides, matched molecular pairs L vs Nle in position X^38, read-out: Potency hCRHR1 pEC50 (converted).

Turning to `CCCC[C@H](NC(=O)[C@@H](NC(=O)[C@H](CCC(=O)O)NC(=O)[C@H](C)NC(=O)[C@H](CC(N)=O)NC(=O)[C@@H](NC(=O)[C@H](CCCCNC(=O)COCCOCCNC(=O)COCCOCCNC(=O)CC[C@H](NC(=O)CC[C@H](NC(=O)CCCCCCCCCCCCCCCCCCC(=O)O)C(=O)O)C(=O)O)NC(=O)[C@H](C)NC(=O)[C@H](CCC(N)=O)NC(=O)[C@H](CCC(N)=O)NC(=O)[C@H](CCCNC(=N)N)NC(=O)[C@H](CCC(N)=O)NC(=O)[C@H](C)NC(=O)[C@H](CCCNC(=N)N)NC(=O)[C@H](C)NC(=O)[C@H](CCCNC(=N)N)NC(=O)[C@H](C)NC(=O)[C@H](CCC(N)=O)NC(=O)[C@H](CCC(=O)O)NC(=O)[C@H](CC(C)C)NC(=O)[C@H](CC(C)C)NC(=O)[C@@H](NC(=O)[C@H](CCC(N)=O)NC(=O)[C@H](CC(C)C)NC(=O)[C@H](CC(C)C)NC(=O)CNC(=O)[C@@H](NC(=O)[C@@H]1CCCN1C(=O)[C@@H](NC(=O)[C@H](CC(=O)O)NC(=O)[C@H](CC(C)C)NC(=O)[C@H](CO)NC(=O)[C@H](CC(C)C)NC(=O)[C@@H](NC(=O)[C@@H](N)[C@@H](C)CC)C(C)C)C(C)C)[C@@H](C)CC)[C@@H](C)CC)[C@@H](C)O)[C@@H](C)CC)C(=O)N[C@@H](C)C(=O)N[C@@H](CCC(=O)O)C(=O)N[C@H](C(N)=O)C(C)C` [SEQ ID NO: 47] (H-IVLSLDVPIGLLQILLEQARARAQRQQAK([AEEA-AEEA-γGlu-γGlu-C20 diacid])TNAEI[Nle]AEV-NH2), the EC50 is 0.2 nM on hCRHR2 (setting [1]) and 63.1 nM at hCRHR1 (setting [2]).

For `CC[C@H](C)[C@H](N)C(=O)N[C@H](C(=O)N[C@@H](CC(C)C)C(=O)N[C@@H](CO)C(=O)N[C@@H](CC(C)C)C(=O)N[C@@H](CC(=O)O)C(=O)N[C@H](C(=O)N1CCC[C@H]1C(=O)N[C@H](C(=O)NCC(=O)N[C@@H](CC(C)C)C(=O)N[C@@H](CC(C)C)C(=O)N[C@@H](CCC(N)=O)C(=O)N[C@H](C(=O)N[C@@H](CC(C)C)C(=O)N[C@@H](CC(C)C)C(=O)N[C@@H](CCC(=O)O)C(=O)N[C@@H](CCC(N)=O)C(=O)N[C@@H](C)C(=O)N[C@@H](CCCNC(=N)N)C(=O)N[C@@H](C)C(=O)N[C@@H](CCCNC(=N)N)C(=O)N[C@@H](CO)C(=O)N[C@@H](C)C(=O)N[C@@H](CCCNC(=N)N)C(=O)N[C@@H](CCC(=O)O)C(=O)N[C@@H](CCC(N)=O)C(=O)N[C@@H](C)C(=O)N[C@@H](CCCCNC(=O)COCCOCCNC(=O)COCCOCCNC(=O)CC[C@H](NC(=O)CC[C@H](NC(=O)CCCCCCCCCCCCCCCCCCC(=O)O)C(=O)O)C(=O)O)C(=O)N[C@H](C(=O)N[C@@H](CC(N)=O)C(=O)N[C@@H](C)C(=O)N[C@@H](CCC(=O)O)C(=O)N[C@H](C(=O)N[C@@H](CC(C)C)C(=O)N[C@@H](C)C(=O)N[C@@H](CCC(=O)O)C(=O)N[C@H](C(N)=O)C(C)C)[C@@H](C)CC)[C@@H](C)O)[C@@H](C)CC)[C@@H](C)CC)C(C)C)C(C)C` [compound 60] (H-IVLSLDVPIGLLQILLEQARARSAREQAK([AEEA-AEEA-γGlu-γGlu-C20 diacid])TNAEILAEV-NH2), the EC50 at hCRHR2 (setting [3]) is 0.501 nM; on hCRHR1 (setting [4]), 25100 nM.

`CC[C@H](C)[C@H](N)C(=O)N[C@H](C(=O)N[C@@H](CC(C)C)C(=O)N[C@@H](CO)C(=O)N[C@@H](CC(C)C)C(=O)N[C@@H](CC(=O)O)C(=O)N[C@H](C(=O)N1CCC[C@H]1C(=O)N[C@H](C(=O)NCC(=O)N[C@@H](CC(C)C)C(=O)N[C@@H](CC(C)C)C(=O)N[C@@H](CCC(N)=O)C(=O)N[C@H](C(=O)N[C@@H](CC(C)C)C(=O)N[C@@H](CC(C)C)C(=O)N[C@@H](CCC(=O)O)C(=O)N[C@@H](CCC(N)=O)C(=O)N[C@@H](C)C(=O)N[C@@H](CCCNC(=N)N)C(=O)N[C@@H](C)C(=O)N[C@@H](CCCNC(=N)N)C(=O)N[C@@H](C)C(=O)N[C@@H](CC(C)C)C(=O)N[C@@H](CCCNC(=N)N)C(=O)N[C@@H](CCC(=O)O)C(=O)N[C@@H](CCC(N)=O)C(=O)N[C@@H](C)C(=O)N[C@@H](CCCCNC(=O)COCCOCCNC(=O)COCCOCCNC(=O)CC[C@H](NC(=O)CC[C@H](NC(=O)CCCCCCCCCCCCCCCCCCC(=O)O)C(=O)O)C(=O)O)C(=O)N[C@H](C(=O)N[C@@H](CC(N)=O)C(=O)N[C@@H](C)C(=O)N[C@@H](CCC(=O)O)C(=O)N[C@H](C(=O)N[C@@H](CC(C)C)C(=O)N[C@@H](C)C(=O)N[C@@H](CCC(=O)O)C(=O)N[C@H](C(N)=O)C(C)C)[C@@H](C)CC)[C@@H](C)O)[C@@H](C)CC)[C@@H](C)CC)C(C)C)C(C)C` [SEQ ID NO: 39] (H-IVLSLDVPIGLLQILLEQARARALREQAK([AEEA-AEEA-γGlu-γGlu-C20 diacid])TNAEILAEV-NH2): the figures for the EC50 on hCRHR2 (setting [1]) and on hCRHR1 (setting [2]) were 0.501 nM and 794 nM, respectively.

As for `CC[C@H](C)[C@H](N)C(=O)N[C@H](C(=O)N[C@@H](CC(C)C)C(=O)N[C@@H](CO)C(=O)N[C@@H](CC(C)C)C(=O)N[C@@H](CC(=O)O)C(=O)N[C@H](C(=O)N1CCC[C@H]1C(=O)N[C@H](C(=O)NCC(=O)N[C@@H](CC(C)C)C(=O)N[C@@H](CC(C)C)C(=O)N[C@@H](CCC(N)=O)C(=O)N[C@H](C(=O)N[C@@H](CC(C)C)C(=O)N[C@@H](CC(C)C)C(=O)N[C@@H](CCC(=O)O)C(=O)N[C@@H](CCC(N)=O)C(=O)N[C@@H](C)C(=O)N[C@@H](CCCNC(=N)N)C(=O)N[C@@H](C)C(=O)N[C@@H](CCC(=O)O)C(=O)N[C@@H](C)C(=O)N[C@@H](CC(C)C)C(=O)N[C@@H](CCCNC(=N)N)C(=O)N[C@@H](CCC(N)=O)C(=O)N[C@@H](CCC(N)=O)C(=O)N[C@@H](C)C(=O)N[C@@H](CCCCNC(=O)COCCOCCNC(=O)COCCOCCNC(=O)CC[C@H](NC(=O)CC[C@H](NC(=O)CCCCCCCCCCCCCCCCCCC(=O)O)C(=O)O)C(=O)O)C(=O)N[C@H](C(=O)N[C@@H](CC(N)=O)C(=O)N[C@@H](C)C(=O)N[C@@H](CCC(=O)O)C(=O)N[C@H](C(=O)N[C@@H](CC(C)C)C(=O)N[C@@H](C)C(=O)N[C@@H](CCC(=O)O)C(=O)N[C@H](C(N)=O)C(C)C)[C@@H](C)CC)[C@@H](C)O)[C@@H](C)CC)[C@@H](C)CC)C(C)C)C(C)C` [compound 58] (H-IVLSLDVPIGLLQILLEQARAEALRQQAK([AEEA-AEEA-γGlu-γGlu-C20 diacid])TNAEILAEV-NH2), the EC50 at hCRHR2 (setting [3]) is 0.316 nM; at hCRHR1 (setting [4]), 100 nM.

Regarding `CC[C@H](C)[C@H](N)C(=O)N[C@H](C(=O)N[C@@H](CC(C)C)C(=O)N[C@@H](CO)C(=O)N[C@@H](CC(C)C)C(=O)N[C@@H](CC(=O)O)C(=O)N[C@H](C(=O)N1CCC[C@H]1C(=O)N[C@H](C(=O)NCC(=O)N[C@@H](CC(C)C)C(=O)N[C@@H](CC(C)C)C(=O)N[C@@H](CCC(N)=O)C(=O)N[C@H](C(=O)N[C@@H](CC(C)C)C(=O)N[C@@H](CC(C)C)C(=O)N[C@@H](CCC(=O)O)C(=O)N[C@@H](CCC(N)=O)C(=O)N[C@@H](C)C(=O)N[C@@H](CCCNC(=N)N)C(=O)N[C@@H](C)C(=O)N[C@@H](CCCNC(=N)N)C(=O)N[C@@H](C)C(=O)N[C@@H](C)C(=O)N[C@@H](CCCNC(=N)N)C(=O)N[C@@H](CCC(=O)O)C(=O)N[C@@H](CCCNC(=N)N)C(=O)N[C@@H](C)C(=O)N[C@@H](CCCCNC(=O)COCCOCCNC(=O)COCCOCCNC(=O)CC[C@H](NC(=O)CC[C@H](NC(=O)CCCCCCCCCCCCCCCCCCC(=O)O)C(=O)O)C(=O)O)C(=O)N[C@H](C(=O)N[C@@H](CC(N)=O)C(=O)N[C@@H](C)C(=O)N[C@@H](CCC(=O)O)C(=O)N[C@H](C(=O)N[C@@H](CC(C)C)C(=O)N[C@@H](C)C(=O)N[C@@H](CCC(=O)O)C(=O)N[C@H](C(N)=O)C(C)C)[C@@H](C)CC)[C@@H](C)O)[C@@H](C)CC)[C@@H](C)CC)C(C)C)C(C)C` [compound 66] (H-IVLSLDVPIGLLQILLEQARARAARERAK([AEEA-AEEA-γGlu-γGlu-C20 diacid])TNAEILAEV-NH2), the EC50 on hCRHR2 was 0.316 nM; on hCRHR1, 50100 nM.
